Results published in US9963455B2, “Pyrazolo[1,5-a]pyrimidines as antiviral compounds” (Curovir AB, priority 2014, dated 2018).

Assays:
Assay type in all cases: cell-based
[1] = test system: Enterovirus strain 71; assay: CPE inhibition in mammalian cell culture, EV71; conditions: for inhibition at 1 µM: EV71, Conc. 1.0 μM; for inhibition at 0.01 µM: EV71, Conc. 0.01 μM
[2] = test system: coxsackie B virus strain 5; assay: CPE inhibition in mammalian cell culture, Cox-B5; conditions: read-out: % inh.
[3] = test system: coxsackie B virus strain 3; assay: CPE inhibition in mammalian cell culture, Cox-B3; conditions: read-out: % inh.
[4] = test system: Ljungan virus strain 012; assay: CPE inhibition in mammalian cell culture, LV012; conditions: Parechovirus B, read-out: % inh.; for inhibition at 10 µM: LV012, Conc. 10 μM
[5] = test system: coxsackie B virus strain 1; assay: CPE inhibition in mammalian cell culture, Cox-B1; conditions: read-out: % inh.
[6] = test system: Human parechovirus strain 1; assay: CPE inhibition in mammalian cell culture, HPeV-1; conditions: Parechovirus A; HPeV-1, Conc. 10.0 μM; read-out: % inh.
[7] = test system: Enterovirus strain 30; assay: CPE inhibition in mammalian cell culture, EV30
[8] = test system: Ljungan virus strain 145; assay: CPE inhibition in mammalian cell culture, LV145; conditions: Parechovirus B; for inhibition at 10 µM: LV145, Conc. 10.0 μM; for inhibition at 1 µM: LV145, Conc. 1.0 μM

With Cc1ccc(-c2c(C)nn3c(NCc4cccnc4)cc(C)nc23)cc1 [Ex. 34, 2,5-dimethyl-3-(p-tolyl)-N-(3-pyridylmethyl)pyrazolo[1,5-a]pyrimidin-7-amine] the inhibition at 1 µM [1] was 100%.
Cc1cc(NCc2cccnc2)n2nc(C)c(-c3ccc(F)cc3)c2n1 [Ex. 36, 3-(4-fluorophenyl)-2,5-dimethyl-N-(3-pyridylmethyl)pyrazolo[1,5-a]pyrimidin-7-amine] showed an inhibition at 1 µM [2] of 97%.
Molecule COc1ccc(-c2cnn3c(NCc4ccc(F)cc4)cc(C)nc23)cc1OC [Ex. 99, 3-(3,4-dimethoxyphenyl)-N-[(4-fluorophenyl)methyl]-5-methyl-pyrazolo[1,5-a]pyrimidin-7-amine] has an inhibition at 0.1 µM [3] of 100%.
COc1ccc(-c2c(C)nn3c(Nc4ncc(C)s4)cc(C)nc23)cc1OC [Ex. 93, N-[3-(3,4-dimethoxyphenyl)-2,5-dimethyl-pyrazolo[1,5-a]pyrimidin-7-yl]-5-methyl-thiazol-2-amine] was tested, and the inhibition at 100 µM ([4]; LV012, Conc. 100 μM) was 42%.
In the case of Cc1cc(NCc2ccccc2)n2nc(C)c(-c3ccc(F)cc3)c2n1 [Ex. 13, N-benzyl-3-(4-fluorophenyl)-2,5-dimethyl-pyrazolo[1,5-a]pyrimidin-7-amine], the inhibition at 1 µM [1] is reported as 66%.
COc1ccc(-c2c(C)nn3c(NCc4cccc5ccccc45)cc(C)nc23)cc1OC [Ex. 96, 3-(3,4-dimethoxyphenyl)-2,5-dimethyl-N-(1-naphthylmethyl)pyrazolo[1,5-a]pyrimidin-7-amine] was tested, and the inhibition at 0.1 µM [5] was 100%.
COc1ccc(-c2c(C)nn3c(Nc4ccccc4)cc(C)nc23)cc1OC [Ex. 57, 3-(3,4-dimethoxyphenyl)-2,5-dimethyl-N-phenyl-pyrazolo[1,5-a]pyrimidin-7-amine] gave an inhibition at 10 µM [6] of 22%.
In the case of COc1ccc(-c2c(C)nn3c(NCc4ccc(N(C)C)cc4)cc(C)nc23)cc1OC [Ex. 78, 3-(3,4-dimethoxyphenyl)-N-[(4-dimethylaminophenyl)methyl]-2,5-dimethyl-pyrazolo[1,5-a]pyrimidin-7-amine], the inhibition at 0.1 µM [5] is reported as 94%.
Work on COc1ccc(-c2c(C)nn3c(NCc4ccccn4)cc(C)nc23)cc1OC [Ex. 35, 3-(3,4-dimethoxyphenyl)-2,5-dimethyl-N-(2-pyridylmethyl)pyrazolo[1,5-a]pyrimidin-7-amine] yielded an inhibition at 0.1 µM ([7]; EV30, Conc. 0.1 μM) of 88%.
Work on COc1ccc(-c2c(C)nn3c(NC4CCCCC4)cc(C)nc23)cc1OC [Ex. 43, N-cyclohexyl-3-(3,4-dimethoxyphenyl)-2,5-dimethyl-pyrazolo[1,5-a]pyrimidin-7-amine] yielded an inhibition at 10 µM [6] of 46%.
In the case of COc1ccc(-c2c(C)nn3c(NCc4ccc(OC(F)(F)F)cc4)cc(C)nc23)cc1OC [Ex. 76, 3-(3,4-dimethoxyphenyl)-2,5-dimethyl-N-[[4-(trifluoromethoxy)phenyl]methyl]pyrazolo[1,5-a]pyrimidin-7-amine], the inhibition at 1 µM [3] is reported as 100%.
Cc1ccc(CNc2cc(C)nc3c(-c4ccc(O)c(O)c4)c(C)nn23)cc1 [Ex. 110, 4-[2,5-dimethyl-7-(p-tolylmethylamino)pyrazolo[1,5-a]pyrimidin-3-yl]benzene-1,2-diol] showed an inhibition at 1 µM [2] of 72%.
With COc1ccc(-c2c(C)nn3c(NCc4ccc(C)cc4)cc(C)nc23)cc1F [Ex. 108, 3-(3-fluoro-4-methoxy-phenyl)-2,5-dimethyl-N-(p-tolylmethyl)pyrazolo[1,5-a]pyrimidin-7-amine] the inhibition at 1 µM [5] was 100%.
Work on COc1cc(-c2c(C)nn3c(NCc4ccc(F)cc4)cc(C)nc23)cc(OC)c1OC [Ex. 105, N-[(4-fluorophenyl)methyl]-2,5-dimethyl-3-(3,4,5-trimethoxyphenyl)pyrazolo[1,5-a]pyrimidin-7-amine] yielded an inhibition at 10 µM ([7]; EV30, Conc. 10 μM, read-out: % inh.) of 67%.
For COc1ccc(-c2c(C)nn3c(Nc4ccc(C(C)C)cc4)cc(C)nc23)cc1OC [Ex. 60, 3-(3,4-dimethoxyphenyl)-N-(4-isopropylphenyl)-2,5-dimethyl-pyrazolo[1,5-a]pyrimidin-7-amine], the inhibition at 1 µM [1] was 69%.
Work on COc1ccc(-c2c(C)nn3c(NC4Cc5ccccc5C4)cc(C)nc23)cc1OC [Ex. 91, 3-(3,4-dimethoxyphenyl)-N-indan-2-yl-2,5-dimethyl-pyrazolo[1,5-a]pyrimidin-7-amine] yielded an inhibition at 1 µM [2] of 75%.
With COc1cccc(Nc2cc(C)nc3c(-c4ccc(OC)c(OC)c4)c(C)nn23)c1 [Ex. 61, 3-(3,4-dimethoxyphenyl)-N-(3-methoxyphenyl)-2,5-dimethyl-pyrazolo[1,5-a]pyrimidin-7-amine] the inhibition at 10 µM [8] was 85%.
For COc1ccc(-c2c(C)nn3c(NCCc4cccs4)cc(C)nc23)cc1OC [Ex. 88, 3-(3,4-dimethoxyphenyl)-2,5-dimethyl-N-[2-(2-thienyl)ethyl]pyrazolo[1,5-a]pyrimidin-7-amine], the inhibition at 1 µM ([7]; EV30, Conc. 1.0 μM, read-out: % inh.) was 88%.
Cc1cc(NCc2ccccc2)n2ncc(-c3ccc(Cl)cc3)c2n1 [Ex. 25, N-benzyl-3-(4-chlorophenyl)-5-methyl-pyrazolo[1,5-a]pyrimidin-7-amine] was tested, and the inhibition at 10 µM [6] was 24%.
Molecule Cc1cc(NCc2ccc(F)cc2)n2nc(C)c(-c3ccc4c(c3)OCO4)c2n1 [Ex. 102, 3-(1,3-benzodioxol-5-yl)-N-[(4-fluorophenyl)methyl]-2,5-dimethyl-pyrazolo[1,5-a]pyrimidin-7-amine] has an inhibition at 1 µM [3] of 100%.
COc1ccc(-c2c(C)nn3c(NCc4ccccc4)cc(C)nc23)cc1OC [Ex. 40, N-benzyl-3-(3,4-dimethoxyphenyl)-2,5-dimethyl-pyrazolo[1,5-a]pyrimidin-7-amine] gave an inhibition at 0.01 µM [1] of 100%.
In the case of COc1ccc(-c2c(C)nn3c(NCCc4ccccn4)cc(C)nc23)cc1OC [Ex. 85, 3-(3,4-dimethoxyphenyl)-2,5-dimethyl-N-[2-(2-pyridyl)ethyl]pyrazolo[1,5-a]pyrimidin-7-amine], the inhibition at 1 µM [5] is reported as 98%.
CCc1nn2c(NCCc3ccc(OC)c(OC)c3)cc(C)nc2c1-c1ccccc1 [Ex. 30, N-[2-(3,4-dimethoxyphenyl)ethyl]-2-ethyl-5-methyl-3-phenyl-pyrazolo[1,5-a]pyrimidin-7-amine] showed an inhibition at 10 µM [8] of 100%.
In the case of COc1ccc(-c2c(C)nn3c(Nc4cccc(Cl)c4)cc(C)nc23)cc1OC [Ex. 51, N-(3-chlorophenyl)-3-(3,4-dimethoxyphenyl)-2,5-dimethyl-pyrazolo[1,5-a]pyrimidin-7-amine], the inhibition at 10 µM [8] is reported as 94%.
Work on COc1ccc(-c2c(C)nn3c(NCc4ccc(NC(C)=O)cc4)cc(C)nc23)cc1OC [Ex. 77, N-[4-[[[3-(3,4-dimethoxyphenyl)-2,5-dimethyl-pyrazolo[1,5-a]pyrimidin-7-yl]amino]methyl]phenyl]acetamide] yielded an inhibition at 0.1 µM [3] of 60%.
For COc1ccc(-c2c(C)nn3c(NCc4ccc(C(C)(C)C)cc4)cc(C)nc23)cc1OC [Ex. 86, N-[(4-tert-butylphenyl)methyl]-3-(3,4-dimethoxyphenyl)-2,5-dimethyl-pyrazolo[1,5-a]pyrimidin-7-amine], the inhibition at 10 µM [4] was 48%.
Work on COc1ccc(-c2c(C)nn3c(Nc4ccc(C)c(Cl)c4)cc(C)nc23)cc1OC [Ex. 55, N-(3-chloro-4-methyl-phenyl)-3-(3,4-dimethoxyphenyl)-2,5-dimethyl-pyrazolo[1,5-a]pyrimidin-7-amine] yielded an inhibition at 1 µM [8] of 41%.
For COc1ccc(-c2c(C)nn3c(Nc4ccncc4)cc(C)nc23)cc1OC [Ex. 74, 3-(3,4-dimethoxyphenyl)-2,5-dimethyl-N-(4-pyridyl)pyrazolo[1,5-a]pyrimidin-7-amine], the inhibition at 10 µM [4] was 55%.
COc1ccc(-c2c(C)nn3c(Nc4ccc(C)c(C)c4)cc(C)nc23)cc1OC [Ex. 52, 3-(3,4-dimethoxyphenyl)-N-(3,4-dimethylphenyl)-2,5-dimethyl-pyrazolo[1,5-a]pyrimidin-7-amine] gave an inhibition at 10 µM [8] of 63%.
In the case of Cc1cc(NC(C)c2ccccc2)n2nc(C)c(-c3ccc(F)cc3)c2n1 (stereo not drawn) [Ex. 17, 3-(4-fluorophenyl)-2,5-dimethyl-N-(1-phenylethyl)pyrazolo[1,5-a]pyrimidin-7-amine], the inhibition at 10 µM [8] is reported as 75%.
COc1ccc(-c2c(C)nn3c(NCc4ccc(S(C)(=O)=O)cc4)cc(C)nc23)cc1OC [Ex. 84, 3-(3,4-dimethoxyphenyl)-2,5-dimethyl-N-[(4-methylsulfonylphenyl)methyl]pyrazolo[1,5-a]pyrimidin-7-amine] gave an inhibition at 0.1 µM [3] of 84%.
COc1ccc(-c2c(C)nn3c(Nc4cc(C)cc(C)c4)cc(C)nc23)cc1OC [Ex. 56, 3-(3,4-dimethoxyphenyl)-N-(3,5-dimethylphenyl)-2,5-dimethyl-pyrazolo[1,5-a]pyrimidin-7-amine] was tested, and the inhibition at 1 µM [8] was 61%.
Work on COc1ccc(-c2c(C)nn3c(NCc4cc[n+]([O-])cc4)cc(C)nc23)cc1OC [Ex. 83, 3-(3,4-dimethoxyphenyl)-2,5-dimethyl-N-[(1-oxidopyridin-1-ium-4-yl)methyl]pyrazolo[1,5-a]pyrimidin-7-amine] yielded an inhibition at 0.01 µM [1] of 82%.
In the case of COc1ccc(CCNc2cc(C)nc3c(-c4ccc(F)cc4)cnn23)cc1OC [Ex. 19, N-[2-(3,4-dimethoxyphenyl)ethyl]-3-(4-fluorophenyl)-5-methyl-pyrazolo[1,5-a]pyrimidin-7-amine], the inhibition at 10 µM [8] is reported as 34%.
With COc1ccc(-c2c(C)nn3c(NCc4ccc(S(N)(=O)=O)cc4)cc(C)nc23)cc1OC [Ex. 97, 4-[[[3-(3,4-dimethoxyphenyl)-2,5-dimethyl-pyrazolo[1,5-a]pyrimidin-7-yl]amino]methyl]benzenesulfonamide] the inhibition at 0.1 µM ([1]; EV71, Conc. 0.1 μM) was 94%.
In the case of Cc1cc(NCc2cccnc2)n2nc(C)c(-c3ccc(Cl)cc3)c2n1 [Ex. 45, 3-(4-chlorophenyl)-2,5-dimethyl-N-(3-pyridylmethyl)pyrazolo[1,5-a]pyrimidin-7-amine], the inhibition at 1 µM [1] is reported as 100%.
